Data as given in patent publication US10294202B2, “Pyrrolidinones as herbicides” (FMC Corporation, priority 2013, dated 2019).

What was measured:
Assay in all cases: Test A pre-/postemergence herbicide test
[1] = system: barnyardgrass; type: in vivo, Echinochloa crus-galli; settings: for Barnyardgrass plant response rating: Preemergence, visual rating on 0 to 100 scale (0 no effect, 100 complete control)
Summary of the method: (§1)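 Both application timings used compounds in a non-phytotoxic solvent plus surfactant. Pre-emergence: soil sprayed directly after seeding into loam/sand. Post-emergence: foliage of 2–10 cm seedlings (1–2 leaves) sprayed. Injury rated ~10 days later, 0–100.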

[2] = system: pigweed; type: in vivo, Amaranthus retroflexus; settings: for Pigweed plant response rating: Preemergence, visual rating on 0 to 100 scale (0 no effect, 100 complete control)
Summary of the method: as §1

[3] = system: corn; type: in vivo, Zea mays; settings: for Corn plant response rating: Preemergence, visual rating on 0 to 100 scale (0 no effect, 100 complete control)
Summary of the method: as §1

[4] = Postemergence, 125 g ai/ha, 0 to 100 scale, 0 no effect, 100 complete control
[5] = Postemergence, 500 g ai/ha, 0 to 100 scale (0 no effect, 100 complete control)
[6] = preemergence, 500 g ai/ha, 0 to 100 scale (0 no effect, 100 complete control)
[7] = preemergence, 500 g ai/ha, 0 to 100 scale

Structure (SMILES) | Plant response rating, Barnyardgrass [1, 4] | Plant response rating, Barnyardgrass [1, 5] | Barnyardgrass plant response rating ([1]; 125 g ai/ha) | Plant response rating, Barnyardgrass [1, 6] | Plant response rating, Pigweed [2, 5] | Pigweed plant response rating ([2]; 125 g ai/ha) | Plant response rating, Pigweed [2, 7] | Plant response rating, Corn [3, 4] | Plant response rating, Corn [3, 5] | Corn plant response rating ([3]; 125 g ai/ha) | Plant response rating, Corn [3, 7] | Plant response rating, Pigweed [2, 4]
O=C1NCC(c2cccc(C(F)(F)F)c2)C1C(=O)Nc1ccccc1F (racemic) [Compound 3] | 70 | 80 | 60 | 80 | 50 | 0 | 0 | 0 | 60 | 0 | 50 | –
O=C1NCC(c2ccc(F)c(F)c2)C1C(=O)Nc1cccc(F)c1 (racemic) [Compound 12] | 60 | 90 | 60 | 90 | 0 | 0 | 0 | 0 | 0 | 0 | 0 | 0
